According to patent US12427210B2, “Compounds comprising a fibroblast activation protein ligand and use thereof” (priority 2019, dated 2025):
Where two headings read alike, the source gives them in different places. Numbered stars: 1 amine (or outer) side, 2 acyl side, 3 side chain; on linkers, the order of the positions; unused ones are H or OH. Bridge positions count the residues as written; N and C are the ends. Peptide text beside a SMILES is read from it. * marks the point of attachment. X1 = O=C(O)CN1CCN(CC(=O)O)CCN(CC(=O)N2CCN(Cc3cc(C[*:1])cc(C[*:2])c3)CC2)CCN(CC(=O)O)CC1; Hexanoyl = CCCCCC(=O)*

How the values were obtained:
BZD (central) = settings: 10 μM
[1] = tested on: serine protease NS3 (a.a. 3-181) from Hepatitis C virus genotype 1b (mutant R155Q)
alpha 2A (h) = alpha 2A (h) (Homo sapiens, UniProt P08913); assay: biochemical; settings: read-out: % Inhibition of Specific Binding
CCK1 (CCKA) (h) = CCK1 (CCKA) (h) (Homo sapiens, UniProt P32238); assay: biochemical; settings: read-out: % Inhibition of Specific Binding
MAO-A = MAO-A (Rattus norvegicus, UniProt P21396); assay: biochemical; settings: read-out: % Inhibition of Specific Binding
M2 (h) = M2 (h) (Homo sapiens, UniProt P08172); assay: biochemical; settings: read-out: % Inhibition of Specific Binding
[2] = target: N neuronal alpha 4beta 2 (h) (Homo sapiens, UniProt P17787+P43681); assay: biochemical; settings: read-out: % Inhibition of Specific Binding
V1a (h) = V1a (h) (Homo sapiens, UniProt P37288); assay: biochemical; settings: read-out: % Inhibition of Specific Binding
COX2(h) = COX2(h) (Homo sapiens, UniProt P35354); assay: biochemical; settings: read-out: % Inhibition of Specific Binding
Acetylcholinesterase (h) = Acetylcholinesterase (h) (Homo sapiens, UniProt P22303); assay: biochemical; settings: read-out: % Inhibition of Specific Binding
Activated Protein C = Activated Protein C (Homo sapiens, UniProt P04070); assay: biochemical; settings: read-out: Percentage inhibition (%)
Beta secretase = Beta secretase (Homo sapiens, UniProt P56817); assay: biochemical; settings: read-out: Percentage inhibition (%)
Caspase-8 = Caspase-8 (Homo sapiens, UniProt Q14790); assay: biochemical; settings: read-out: Percentage inhibition (%)
[3] = target: T1, Ubiquitin carboxyl-terminal hydrolase 2 (Homo sapiens, UniProt O75604); assay: biochemical; settings: read-out: Percentage inhibition (%)
T1 sequence (O75604 1-605): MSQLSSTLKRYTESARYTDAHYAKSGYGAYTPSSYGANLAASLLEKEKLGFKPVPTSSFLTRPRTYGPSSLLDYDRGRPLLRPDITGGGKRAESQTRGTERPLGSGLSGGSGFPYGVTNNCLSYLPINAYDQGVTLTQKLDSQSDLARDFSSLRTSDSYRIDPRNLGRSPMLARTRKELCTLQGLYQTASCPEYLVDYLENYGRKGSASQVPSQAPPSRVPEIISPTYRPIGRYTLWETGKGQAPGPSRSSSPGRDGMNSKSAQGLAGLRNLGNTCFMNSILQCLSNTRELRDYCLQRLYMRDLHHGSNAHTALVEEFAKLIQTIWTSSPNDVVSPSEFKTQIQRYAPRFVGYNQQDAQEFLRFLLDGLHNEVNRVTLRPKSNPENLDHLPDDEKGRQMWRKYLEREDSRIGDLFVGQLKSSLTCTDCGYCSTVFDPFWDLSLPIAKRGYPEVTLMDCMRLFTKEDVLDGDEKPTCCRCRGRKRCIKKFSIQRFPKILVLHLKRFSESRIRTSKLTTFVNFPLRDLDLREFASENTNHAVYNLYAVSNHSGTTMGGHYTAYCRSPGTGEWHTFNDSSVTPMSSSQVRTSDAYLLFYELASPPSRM

[4] = target: T2, Ubiquitin carboxyl-terminal hydrolase 8 (Homo sapiens, UniProt P40818); assay: biochemical; settings: read-out: Percentage inhibition (%)
T2 sequence (P40818 1-1118): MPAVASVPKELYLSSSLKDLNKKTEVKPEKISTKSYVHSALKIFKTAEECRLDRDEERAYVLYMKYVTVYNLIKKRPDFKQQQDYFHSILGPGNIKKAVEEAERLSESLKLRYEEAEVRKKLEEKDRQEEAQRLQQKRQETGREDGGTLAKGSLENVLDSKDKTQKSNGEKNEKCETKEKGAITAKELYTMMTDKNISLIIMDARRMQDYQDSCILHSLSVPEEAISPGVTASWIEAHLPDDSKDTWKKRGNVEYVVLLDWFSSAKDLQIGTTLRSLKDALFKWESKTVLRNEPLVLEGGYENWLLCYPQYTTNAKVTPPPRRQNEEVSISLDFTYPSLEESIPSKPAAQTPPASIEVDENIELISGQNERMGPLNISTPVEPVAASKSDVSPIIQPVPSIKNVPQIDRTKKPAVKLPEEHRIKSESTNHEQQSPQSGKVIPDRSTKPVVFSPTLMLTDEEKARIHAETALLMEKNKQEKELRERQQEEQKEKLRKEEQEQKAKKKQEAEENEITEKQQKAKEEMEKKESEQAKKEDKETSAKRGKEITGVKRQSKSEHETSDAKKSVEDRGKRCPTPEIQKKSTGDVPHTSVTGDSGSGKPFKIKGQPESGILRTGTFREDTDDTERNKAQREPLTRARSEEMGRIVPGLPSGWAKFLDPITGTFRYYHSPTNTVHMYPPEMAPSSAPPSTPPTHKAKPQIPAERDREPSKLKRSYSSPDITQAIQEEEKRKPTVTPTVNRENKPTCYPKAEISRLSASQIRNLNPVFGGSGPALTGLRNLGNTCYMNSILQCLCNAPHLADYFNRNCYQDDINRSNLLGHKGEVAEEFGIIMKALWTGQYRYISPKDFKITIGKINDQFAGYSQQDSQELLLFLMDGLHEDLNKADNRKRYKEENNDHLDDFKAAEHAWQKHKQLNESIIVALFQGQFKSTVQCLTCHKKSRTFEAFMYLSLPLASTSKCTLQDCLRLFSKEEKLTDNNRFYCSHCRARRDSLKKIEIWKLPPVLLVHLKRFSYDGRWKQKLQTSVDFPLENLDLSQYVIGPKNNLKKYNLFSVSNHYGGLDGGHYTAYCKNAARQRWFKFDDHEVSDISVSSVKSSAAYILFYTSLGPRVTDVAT

[5] = target: Ubiquitin carboxyl-terminal hydrolase 10 (Homo sapiens, UniProt Q14694); assay: biochemical; settings: read-out: Percentage inhibition (%)
[6] = target: Ubiquitin carboxyl-terminal hydrolase 14 (Homo sapiens, UniProt P54578); assay: biochemical; settings: read-out: Percentage inhibition (%)
Chain of Ubiquitin carboxyl-terminal hydrolase 14 (P54578 whole entry): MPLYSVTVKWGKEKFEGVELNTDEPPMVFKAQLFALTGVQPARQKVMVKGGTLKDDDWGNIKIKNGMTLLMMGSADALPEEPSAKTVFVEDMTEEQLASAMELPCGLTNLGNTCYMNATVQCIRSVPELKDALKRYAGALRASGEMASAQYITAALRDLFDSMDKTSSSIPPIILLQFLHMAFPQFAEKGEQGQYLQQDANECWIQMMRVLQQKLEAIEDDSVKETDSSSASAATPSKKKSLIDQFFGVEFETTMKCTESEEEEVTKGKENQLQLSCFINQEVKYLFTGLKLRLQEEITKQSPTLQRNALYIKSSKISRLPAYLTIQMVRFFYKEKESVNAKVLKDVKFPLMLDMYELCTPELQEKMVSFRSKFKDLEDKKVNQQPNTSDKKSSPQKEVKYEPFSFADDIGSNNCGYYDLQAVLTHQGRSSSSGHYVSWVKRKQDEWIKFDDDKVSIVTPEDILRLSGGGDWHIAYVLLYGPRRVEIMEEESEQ

Chain of Activated Protein C (P04070 212-461 limits assumed): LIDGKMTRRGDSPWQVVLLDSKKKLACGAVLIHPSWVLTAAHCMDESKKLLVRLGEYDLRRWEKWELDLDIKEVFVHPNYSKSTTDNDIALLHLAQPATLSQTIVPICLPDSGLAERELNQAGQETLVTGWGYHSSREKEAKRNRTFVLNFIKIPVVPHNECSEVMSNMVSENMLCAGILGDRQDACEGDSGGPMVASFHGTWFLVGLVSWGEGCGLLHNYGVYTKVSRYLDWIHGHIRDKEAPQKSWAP
Chain of Activated Protein C (P04070 43-197 partner limits assumed): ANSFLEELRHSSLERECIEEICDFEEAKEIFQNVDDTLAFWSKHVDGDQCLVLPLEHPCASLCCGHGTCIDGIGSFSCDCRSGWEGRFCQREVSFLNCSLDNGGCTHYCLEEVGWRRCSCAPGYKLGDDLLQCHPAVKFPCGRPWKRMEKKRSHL
Chain of Beta secretase (P56817 46-501): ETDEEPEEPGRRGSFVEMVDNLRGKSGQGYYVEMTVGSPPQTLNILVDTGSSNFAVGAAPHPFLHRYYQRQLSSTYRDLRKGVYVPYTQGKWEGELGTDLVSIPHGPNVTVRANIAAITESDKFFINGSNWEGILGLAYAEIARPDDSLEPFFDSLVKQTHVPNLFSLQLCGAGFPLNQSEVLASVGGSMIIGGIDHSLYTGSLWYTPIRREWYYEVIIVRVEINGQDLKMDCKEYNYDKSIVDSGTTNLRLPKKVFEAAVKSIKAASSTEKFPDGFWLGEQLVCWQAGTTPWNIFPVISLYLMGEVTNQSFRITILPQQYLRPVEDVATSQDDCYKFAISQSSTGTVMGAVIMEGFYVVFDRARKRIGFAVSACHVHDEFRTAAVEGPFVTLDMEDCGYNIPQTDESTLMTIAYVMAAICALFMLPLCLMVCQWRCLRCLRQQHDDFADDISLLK
Chain of Ubiquitin carboxyl-terminal hydrolase 10 (Q14694 whole entry): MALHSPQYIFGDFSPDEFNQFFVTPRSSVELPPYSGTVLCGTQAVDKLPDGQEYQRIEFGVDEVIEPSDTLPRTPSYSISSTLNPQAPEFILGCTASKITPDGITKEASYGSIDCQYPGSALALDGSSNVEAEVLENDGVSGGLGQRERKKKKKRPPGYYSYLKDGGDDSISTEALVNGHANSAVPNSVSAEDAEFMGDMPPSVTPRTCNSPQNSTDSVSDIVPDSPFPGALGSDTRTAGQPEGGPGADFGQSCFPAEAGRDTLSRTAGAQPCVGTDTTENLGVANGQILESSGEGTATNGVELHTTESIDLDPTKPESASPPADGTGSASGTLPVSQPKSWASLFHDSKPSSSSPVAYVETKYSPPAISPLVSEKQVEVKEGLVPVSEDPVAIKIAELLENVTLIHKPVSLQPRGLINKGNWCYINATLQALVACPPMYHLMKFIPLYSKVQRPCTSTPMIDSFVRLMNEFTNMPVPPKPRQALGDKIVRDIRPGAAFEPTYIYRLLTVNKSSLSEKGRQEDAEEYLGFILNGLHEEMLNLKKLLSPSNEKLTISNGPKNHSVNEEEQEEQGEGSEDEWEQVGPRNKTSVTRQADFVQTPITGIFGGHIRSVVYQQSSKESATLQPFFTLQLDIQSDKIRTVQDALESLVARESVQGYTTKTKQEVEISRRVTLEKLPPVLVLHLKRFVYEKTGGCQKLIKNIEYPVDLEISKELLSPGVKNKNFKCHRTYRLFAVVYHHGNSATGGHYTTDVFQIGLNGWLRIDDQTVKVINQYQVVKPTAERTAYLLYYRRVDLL
Chain of Caspase-8 (Q14790 217-374 limits assumed, species assumed): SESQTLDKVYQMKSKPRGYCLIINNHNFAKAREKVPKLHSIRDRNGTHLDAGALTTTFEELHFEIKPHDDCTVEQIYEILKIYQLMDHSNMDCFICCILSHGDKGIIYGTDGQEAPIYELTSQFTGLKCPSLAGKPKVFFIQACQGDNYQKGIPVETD
Chain of Caspase-8 (Q14790 385-479 limits assumed, species assumed): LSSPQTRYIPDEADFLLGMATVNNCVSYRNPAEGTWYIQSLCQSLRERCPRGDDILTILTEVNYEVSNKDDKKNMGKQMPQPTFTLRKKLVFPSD
Chain of COX2(h) (P35354 18-604): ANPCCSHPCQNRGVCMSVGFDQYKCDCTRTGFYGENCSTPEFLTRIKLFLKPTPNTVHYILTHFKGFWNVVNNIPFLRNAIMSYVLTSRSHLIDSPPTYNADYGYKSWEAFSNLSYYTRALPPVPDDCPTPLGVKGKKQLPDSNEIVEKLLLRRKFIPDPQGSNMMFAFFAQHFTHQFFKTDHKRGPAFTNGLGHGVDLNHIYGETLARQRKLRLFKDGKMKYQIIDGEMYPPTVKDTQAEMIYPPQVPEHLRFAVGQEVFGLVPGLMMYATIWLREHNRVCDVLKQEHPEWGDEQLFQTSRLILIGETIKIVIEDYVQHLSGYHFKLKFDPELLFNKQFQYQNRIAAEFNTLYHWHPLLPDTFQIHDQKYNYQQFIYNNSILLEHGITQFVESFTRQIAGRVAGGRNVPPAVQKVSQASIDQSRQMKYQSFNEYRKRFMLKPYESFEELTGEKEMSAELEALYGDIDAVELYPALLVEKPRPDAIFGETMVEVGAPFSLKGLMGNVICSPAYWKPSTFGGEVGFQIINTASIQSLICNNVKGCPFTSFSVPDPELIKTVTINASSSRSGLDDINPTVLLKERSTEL
Chain of CCK1 (CCKA) (h) (P32238 whole entry): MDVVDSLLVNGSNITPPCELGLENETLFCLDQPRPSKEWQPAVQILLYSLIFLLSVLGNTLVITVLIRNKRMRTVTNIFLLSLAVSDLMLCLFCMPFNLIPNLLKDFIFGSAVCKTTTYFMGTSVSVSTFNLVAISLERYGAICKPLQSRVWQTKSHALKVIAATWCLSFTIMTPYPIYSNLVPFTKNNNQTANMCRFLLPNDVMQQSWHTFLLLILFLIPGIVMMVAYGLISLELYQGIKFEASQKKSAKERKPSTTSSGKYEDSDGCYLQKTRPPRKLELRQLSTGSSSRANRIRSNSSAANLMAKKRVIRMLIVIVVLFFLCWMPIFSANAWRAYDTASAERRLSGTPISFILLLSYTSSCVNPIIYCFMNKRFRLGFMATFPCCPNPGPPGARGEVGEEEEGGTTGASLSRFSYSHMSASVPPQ
Chain of Acetylcholinesterase (h) (P22303 32-614): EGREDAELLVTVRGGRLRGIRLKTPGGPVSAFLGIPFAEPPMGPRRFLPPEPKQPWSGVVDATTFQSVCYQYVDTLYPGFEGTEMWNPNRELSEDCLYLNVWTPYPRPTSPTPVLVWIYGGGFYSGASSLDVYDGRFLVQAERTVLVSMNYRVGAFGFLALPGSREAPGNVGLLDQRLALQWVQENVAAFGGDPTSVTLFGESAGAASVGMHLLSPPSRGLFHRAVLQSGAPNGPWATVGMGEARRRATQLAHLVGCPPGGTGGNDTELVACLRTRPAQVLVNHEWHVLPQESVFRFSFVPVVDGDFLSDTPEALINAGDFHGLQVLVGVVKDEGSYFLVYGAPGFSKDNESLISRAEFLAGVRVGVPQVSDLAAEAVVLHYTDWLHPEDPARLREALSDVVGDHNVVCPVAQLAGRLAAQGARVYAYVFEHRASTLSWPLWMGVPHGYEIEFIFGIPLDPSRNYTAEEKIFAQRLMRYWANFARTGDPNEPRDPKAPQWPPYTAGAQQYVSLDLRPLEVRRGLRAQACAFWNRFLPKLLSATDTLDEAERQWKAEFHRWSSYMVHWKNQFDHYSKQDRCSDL
Chain of V1a (h) (P37288 whole entry): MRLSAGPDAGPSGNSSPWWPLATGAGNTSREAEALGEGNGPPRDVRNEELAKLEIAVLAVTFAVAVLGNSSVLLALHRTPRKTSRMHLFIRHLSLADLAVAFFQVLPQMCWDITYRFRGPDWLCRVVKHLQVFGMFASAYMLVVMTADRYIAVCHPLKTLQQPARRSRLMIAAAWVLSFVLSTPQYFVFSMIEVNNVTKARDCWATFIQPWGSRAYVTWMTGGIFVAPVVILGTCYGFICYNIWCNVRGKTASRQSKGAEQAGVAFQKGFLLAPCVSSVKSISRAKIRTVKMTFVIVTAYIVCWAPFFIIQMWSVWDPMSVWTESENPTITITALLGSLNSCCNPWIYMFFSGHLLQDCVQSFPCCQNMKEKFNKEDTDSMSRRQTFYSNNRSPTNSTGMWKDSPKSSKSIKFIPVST
Chain of M2 (h) (P08172 whole entry): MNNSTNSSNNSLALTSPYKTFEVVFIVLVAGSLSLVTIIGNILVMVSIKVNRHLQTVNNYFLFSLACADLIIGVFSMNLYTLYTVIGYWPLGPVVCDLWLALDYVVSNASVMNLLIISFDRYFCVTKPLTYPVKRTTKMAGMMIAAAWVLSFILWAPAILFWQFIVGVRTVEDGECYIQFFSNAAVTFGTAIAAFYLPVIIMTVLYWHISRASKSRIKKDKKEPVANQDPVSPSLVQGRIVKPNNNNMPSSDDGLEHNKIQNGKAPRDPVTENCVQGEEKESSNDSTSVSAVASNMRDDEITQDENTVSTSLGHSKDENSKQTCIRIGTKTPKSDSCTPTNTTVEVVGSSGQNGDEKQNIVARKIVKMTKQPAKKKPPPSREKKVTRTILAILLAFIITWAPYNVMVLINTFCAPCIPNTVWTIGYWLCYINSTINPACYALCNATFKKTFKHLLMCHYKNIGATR

| SMILES | % Inhibition of Specific Binding (BZD (central)) [%] | Percentage inhibition (%) ([1]; 1 μM) | Percentage inhibition (%) ([1]; 10 μM) | inhibition at 10 µM (alpha 2A (h)) [%] | inhibition at 10 µM (CCK1 (CCKA) (h)) [%] | inhibition at 10 µM (MAO-A) [%] | inhibition at 10 µM (M2 (h)) [%] | inhibition at 10 µM [2] [%] | inhibition at 10 µM (V1a (h)) [%] | inhibition at 10 µM (COX2(h)) [%] | inhibition at 10 µM (Acetylcholinesterase (h)) [%] | inhibition at 1 µM (Activated Protein C) [%] | inhibition at 10 µM (Activated Protein C) [%] | inhibition at 1 µM (Beta secretase) [%] | inhibition at 10 µM (Beta secretase) [%] | inhibition at 1 µM (Caspase-8) [%] | inhibition at 10 µM (Caspase-8) [%] | inhibition at 1 µM [3] [%] | inhibition at 10 µM [3] [%] | inhibition at 1 µM [4] [%] | also measured |
| --- | --- | --- | --- | --- | --- | --- | --- | --- | --- | --- | --- | --- | --- | --- | --- | --- | --- | --- | --- | --- | --- |
| CCCCCC(=O)N[C@H]1CSCc2cc(cc(CN3CCN(C(=O)CN4CCN(CC(=O)O)CCN(CC(=O)O)CCN(CC(=O)O)CC4)CC3)c2)CSC[C@@H](C(=O)N[C@@H](CC(=O)O)C(N)=O)NC(=O)[C@H](Cc2ccccc2)NC(=O)[C@H](CCC(N)=O)NC(=O)[C@H]([C@@H](C)O)NC(=O)[C@@H]2CCCN2C(=O)[C@@H]2CCCN2C1=O [Compound 3BP-3407, Hex-[Cys(tMeBn(DOTA-PP))-Pro-Pro-Thr-Gln-Phe-Cys]-Asp-NH2] (Hexanoyl-CPPTQFCD-NH2; linker 1-7 via X1) | −9 | 0 | 2 | -9 | 24 | -5 | -4 | -8 | 16 | -14 | -6 | 5 | 8 | -8 | -5 | 0 | 0 | 3 | 7 | -3 | inhibition at 10 µM [4]: 6%; inhibition at 1 µM [5]: -2%; inhibition at 10 µM [5]: 5%; inhibition at 1 µM [6]: -1%; inhibition at 10 µM [6]: 5% |
| CCCCCC(=O)N[C@H]1CSCc2cc(CSCCNC(=O)CN3CCN(CC(=O)O)CCN(CC(=O)O)CCN(CC(=O)O)CC3)cc(c2)CSC[C@@H](C(=O)O)NC(=O)[C@H](Cc2ccccc2)NC(=O)[C@H](CCC(N)=O)NC(=O)[C@H]([C@@H](C)O)NC(=O)[C@@H]2CCCN2C(=O)[C@@H]2CCCN2C1=O [Compound 3BP-3554, Hex-[Cys(tMeBn(DOTA-AET))-Pro-Pro-Thr-Gln-Phe-Cys]-OH] | 5 | 0 | −5 | 2 | 16 | -25 | 7 | -2 | 1 | -22 | 1 | -11 | 1 | 1 | 7 | 0 | -3 | 0 | -1 | 2 | inhibition at 10 µM [4]: 1%; inhibition at 1 µM [5]: 1%; inhibition at 10 µM [5]: -1%; inhibition at 1 µM [6]: 1%; inhibition at 10 µM [6]: 2% |
